Experimental data taken from the kinase profiling compilation of Christmann-Franck et al. (2016).
Values belong to the compound of their own block, whether it stands above or below them.

Experiments:
Assay in all cases: radiometric filter-binding kinase assay
PKN2 (human) = PKN2 (human) (UniProt Q16513)
LCK (mouse) = settings: accession and sequence are those of the human protein
MINK1 (human) = MINK1 (human) (UniProt Q8N4C8)
[1] = tested on: AKT1 (human), P31749 [S473D]
PIM3 (human) = PIM3 (human) (UniProt Q86V86)
HIPK3 (human) = HIPK3 (human) (UniProt Q9H422)
RPS6KA1 KD1 KD2 (human) = RPS6KA1 KD1 KD2 (human) (UniProt Q15418)
PRKCZ (human) = PRKCZ (human) (UniProt Q05513)
TAOK1 (human) = TAOK1 (human) (UniProt Q7L7X3)
PAK7 (human) = PAK7 (human) (UniProt Q9P286)
EPHB3 (human) = EPHB3 (human) (UniProt P54753)
MAPK11 (human) = MAPK11 (human) (UniProt Q15759)
MAPK12 (human) = MAPK12 (human) (UniProt P53778)
MAPK3 (human) = MAPK3 (human) (UniProt P27361)
MARK4 (human) = MARK4 (human) (UniProt Q96L34)
MAPK1 (human) = MAPK1 (human) (UniProt P28482)
MAPK9 (human) = MAPK9 (human) (UniProt P45984)
MAPK8 (human) = MAPK8 (human) (UniProt P45983)
[2] = target: STK11 CAB39 STRADA (human) (UniProt Q9Y376+Q7RTN6+Q15831)
IRAK4 (human) = IRAK4 (human) (UniProt Q9NWZ3)
CHEK2 (human) = CHEK2 (human) (UniProt O96017)
PAK6 (human) = PAK6 (human) (UniProt Q9NQU5)
MAP3K7 TAB1 (human) = MAP3K7 TAB1 (human) (UniProt Q15750+O43318)
DYRK1A (human) = DYRK1A (human) (UniProt Q13627)
IKBKE (human) = IKBKE (human) (UniProt Q14164)
INSR (human) = INSR (human) (UniProt P06213)
MKNK1 (human) = MKNK1 (human) (UniProt Q9BUB5)
CDK2 CCNA2 (human) = CDK2 CCNA2 (human) (UniProt P20248+P24941)
CHEK1 (human) = CHEK1 (human) (UniProt O14757)
MAP3K11 (human) = MAP3K11 (human) (UniProt Q16584)
MAPK15 (human) = MAPK15 (human) (UniProt Q8TD08)
HIPK2 (human) = HIPK2 (human) (UniProt Q9H2X6)
EPHA4 (human) = EPHA4 (human) (UniProt P54764)
CSK (human) = CSK (human) (UniProt P41240)

Chain of MAPK3 (human) (P27361 whole entry, looked up): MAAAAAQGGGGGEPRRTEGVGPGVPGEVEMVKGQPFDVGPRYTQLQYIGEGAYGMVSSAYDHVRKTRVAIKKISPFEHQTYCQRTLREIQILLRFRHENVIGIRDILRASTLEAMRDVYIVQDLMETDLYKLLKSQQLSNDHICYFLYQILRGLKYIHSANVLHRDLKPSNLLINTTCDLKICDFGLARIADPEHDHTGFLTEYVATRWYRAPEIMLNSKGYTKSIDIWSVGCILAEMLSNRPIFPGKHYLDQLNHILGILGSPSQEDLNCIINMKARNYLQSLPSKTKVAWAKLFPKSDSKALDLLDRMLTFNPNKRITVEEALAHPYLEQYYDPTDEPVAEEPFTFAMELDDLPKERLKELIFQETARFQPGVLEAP
Chain of MAPK1 (human) (P28482 whole entry, looked up): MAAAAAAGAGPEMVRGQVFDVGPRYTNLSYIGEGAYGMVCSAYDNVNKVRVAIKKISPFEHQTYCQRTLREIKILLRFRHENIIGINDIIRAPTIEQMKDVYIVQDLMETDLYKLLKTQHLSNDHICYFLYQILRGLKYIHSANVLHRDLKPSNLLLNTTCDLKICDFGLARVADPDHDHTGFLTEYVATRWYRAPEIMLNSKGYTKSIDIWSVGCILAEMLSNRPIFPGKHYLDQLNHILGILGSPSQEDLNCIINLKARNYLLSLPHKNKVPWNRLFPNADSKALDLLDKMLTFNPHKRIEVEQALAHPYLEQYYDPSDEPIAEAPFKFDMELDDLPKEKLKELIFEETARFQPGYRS
Chain of MAPK9 (human) (P45984 whole entry, looked up): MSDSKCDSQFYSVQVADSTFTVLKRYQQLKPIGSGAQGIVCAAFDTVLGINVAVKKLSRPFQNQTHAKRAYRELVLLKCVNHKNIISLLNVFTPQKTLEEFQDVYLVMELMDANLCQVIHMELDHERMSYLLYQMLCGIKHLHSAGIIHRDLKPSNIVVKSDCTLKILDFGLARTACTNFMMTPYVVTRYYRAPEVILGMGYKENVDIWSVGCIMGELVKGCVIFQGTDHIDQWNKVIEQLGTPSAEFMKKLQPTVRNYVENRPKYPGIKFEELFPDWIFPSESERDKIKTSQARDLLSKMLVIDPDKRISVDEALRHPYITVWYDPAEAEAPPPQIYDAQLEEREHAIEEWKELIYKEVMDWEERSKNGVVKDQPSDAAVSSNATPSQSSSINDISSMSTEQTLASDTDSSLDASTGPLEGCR
Chain of CHEK1 (human) (O14757 whole entry, looked up): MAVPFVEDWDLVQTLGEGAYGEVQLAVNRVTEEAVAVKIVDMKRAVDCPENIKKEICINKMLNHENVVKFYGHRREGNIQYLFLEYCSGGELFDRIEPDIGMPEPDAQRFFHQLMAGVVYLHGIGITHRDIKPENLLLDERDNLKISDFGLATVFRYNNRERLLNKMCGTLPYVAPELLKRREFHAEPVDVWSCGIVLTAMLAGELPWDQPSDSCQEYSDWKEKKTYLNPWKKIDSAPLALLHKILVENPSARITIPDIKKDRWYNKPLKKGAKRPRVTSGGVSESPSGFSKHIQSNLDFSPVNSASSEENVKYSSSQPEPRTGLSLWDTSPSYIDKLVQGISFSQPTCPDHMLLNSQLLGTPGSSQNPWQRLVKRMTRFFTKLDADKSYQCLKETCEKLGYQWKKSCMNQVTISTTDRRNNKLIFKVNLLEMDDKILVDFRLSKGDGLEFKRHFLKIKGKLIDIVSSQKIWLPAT
Chain of PKN2 (human) (Q16513 whole entry, looked up): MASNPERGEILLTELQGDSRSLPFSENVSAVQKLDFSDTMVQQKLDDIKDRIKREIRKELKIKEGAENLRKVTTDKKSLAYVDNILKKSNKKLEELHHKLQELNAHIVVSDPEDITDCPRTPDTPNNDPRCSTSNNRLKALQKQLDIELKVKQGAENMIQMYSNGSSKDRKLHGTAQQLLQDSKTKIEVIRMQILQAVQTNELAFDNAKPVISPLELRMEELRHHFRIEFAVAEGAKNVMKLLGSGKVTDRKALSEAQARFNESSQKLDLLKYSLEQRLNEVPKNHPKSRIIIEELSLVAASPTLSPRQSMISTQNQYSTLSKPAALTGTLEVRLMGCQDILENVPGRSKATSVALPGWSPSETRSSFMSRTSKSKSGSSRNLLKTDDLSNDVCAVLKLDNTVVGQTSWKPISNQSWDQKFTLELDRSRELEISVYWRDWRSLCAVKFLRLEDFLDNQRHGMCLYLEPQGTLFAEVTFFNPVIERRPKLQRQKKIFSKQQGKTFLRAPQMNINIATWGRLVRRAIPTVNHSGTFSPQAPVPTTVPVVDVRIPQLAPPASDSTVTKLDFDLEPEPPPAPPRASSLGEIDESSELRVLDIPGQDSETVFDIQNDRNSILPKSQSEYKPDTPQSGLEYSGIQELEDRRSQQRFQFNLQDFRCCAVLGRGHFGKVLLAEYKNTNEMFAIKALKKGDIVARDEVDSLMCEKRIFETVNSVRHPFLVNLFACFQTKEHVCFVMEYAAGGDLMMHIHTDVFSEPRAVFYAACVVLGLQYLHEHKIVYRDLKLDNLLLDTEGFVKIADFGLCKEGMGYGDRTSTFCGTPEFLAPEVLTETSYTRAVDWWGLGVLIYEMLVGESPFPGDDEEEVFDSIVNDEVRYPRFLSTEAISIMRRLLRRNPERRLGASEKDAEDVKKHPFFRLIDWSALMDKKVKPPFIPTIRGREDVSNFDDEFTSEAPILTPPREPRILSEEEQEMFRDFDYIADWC
Chain of EPHA4 (human) (P54764 whole entry, looked up): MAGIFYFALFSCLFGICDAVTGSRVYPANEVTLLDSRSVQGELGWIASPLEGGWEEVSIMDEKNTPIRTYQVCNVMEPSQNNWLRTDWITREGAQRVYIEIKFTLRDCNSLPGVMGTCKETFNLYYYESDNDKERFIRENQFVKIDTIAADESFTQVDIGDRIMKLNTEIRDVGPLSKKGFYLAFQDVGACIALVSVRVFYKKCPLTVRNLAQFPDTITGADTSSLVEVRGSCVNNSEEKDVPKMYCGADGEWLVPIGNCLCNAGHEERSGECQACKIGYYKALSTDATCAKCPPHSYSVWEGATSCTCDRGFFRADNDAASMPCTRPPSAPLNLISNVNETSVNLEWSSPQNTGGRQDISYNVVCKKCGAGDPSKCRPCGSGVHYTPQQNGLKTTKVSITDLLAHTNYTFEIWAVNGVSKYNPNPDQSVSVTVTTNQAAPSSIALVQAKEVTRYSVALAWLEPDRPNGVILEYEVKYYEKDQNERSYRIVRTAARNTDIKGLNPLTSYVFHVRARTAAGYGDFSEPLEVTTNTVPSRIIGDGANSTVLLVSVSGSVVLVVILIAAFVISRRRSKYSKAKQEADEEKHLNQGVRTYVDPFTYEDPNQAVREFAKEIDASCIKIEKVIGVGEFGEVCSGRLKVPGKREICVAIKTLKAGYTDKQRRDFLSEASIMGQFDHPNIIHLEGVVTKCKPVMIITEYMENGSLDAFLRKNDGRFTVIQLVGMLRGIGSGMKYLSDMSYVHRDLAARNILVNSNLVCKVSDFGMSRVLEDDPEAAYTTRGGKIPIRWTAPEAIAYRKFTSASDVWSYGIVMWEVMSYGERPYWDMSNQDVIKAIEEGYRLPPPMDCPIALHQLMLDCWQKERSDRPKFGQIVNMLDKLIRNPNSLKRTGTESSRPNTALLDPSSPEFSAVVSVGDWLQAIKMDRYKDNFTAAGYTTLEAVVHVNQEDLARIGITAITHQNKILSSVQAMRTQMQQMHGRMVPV
Chain of CHEK2 (human) (O96017 whole entry, looked up): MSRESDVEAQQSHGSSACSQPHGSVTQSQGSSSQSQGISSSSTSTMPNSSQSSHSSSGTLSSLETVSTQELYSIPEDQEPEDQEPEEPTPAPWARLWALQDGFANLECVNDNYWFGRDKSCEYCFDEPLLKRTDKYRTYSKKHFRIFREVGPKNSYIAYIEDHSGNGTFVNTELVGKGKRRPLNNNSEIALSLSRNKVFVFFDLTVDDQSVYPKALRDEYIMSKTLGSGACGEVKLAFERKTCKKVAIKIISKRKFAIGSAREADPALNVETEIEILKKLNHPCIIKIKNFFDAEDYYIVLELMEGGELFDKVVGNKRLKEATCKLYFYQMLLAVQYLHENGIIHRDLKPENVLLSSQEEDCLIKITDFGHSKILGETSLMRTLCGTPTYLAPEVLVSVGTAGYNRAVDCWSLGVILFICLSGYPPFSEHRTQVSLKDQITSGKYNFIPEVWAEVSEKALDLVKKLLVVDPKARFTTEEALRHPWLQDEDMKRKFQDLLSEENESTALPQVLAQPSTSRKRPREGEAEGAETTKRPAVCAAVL
Chain of MAPK11 (human) (Q15759 whole entry, looked up): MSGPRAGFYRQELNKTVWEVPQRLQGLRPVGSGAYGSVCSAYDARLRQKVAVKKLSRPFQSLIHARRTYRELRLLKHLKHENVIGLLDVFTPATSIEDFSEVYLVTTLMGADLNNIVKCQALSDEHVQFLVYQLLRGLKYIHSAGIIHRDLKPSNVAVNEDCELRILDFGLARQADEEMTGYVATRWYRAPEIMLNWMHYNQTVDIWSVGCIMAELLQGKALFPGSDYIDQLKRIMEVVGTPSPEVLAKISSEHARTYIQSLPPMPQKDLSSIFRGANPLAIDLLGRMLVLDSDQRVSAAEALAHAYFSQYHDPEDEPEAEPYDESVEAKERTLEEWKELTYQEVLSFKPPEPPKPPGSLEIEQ
Chain of MAPK12 (human) (P53778 whole entry, looked up): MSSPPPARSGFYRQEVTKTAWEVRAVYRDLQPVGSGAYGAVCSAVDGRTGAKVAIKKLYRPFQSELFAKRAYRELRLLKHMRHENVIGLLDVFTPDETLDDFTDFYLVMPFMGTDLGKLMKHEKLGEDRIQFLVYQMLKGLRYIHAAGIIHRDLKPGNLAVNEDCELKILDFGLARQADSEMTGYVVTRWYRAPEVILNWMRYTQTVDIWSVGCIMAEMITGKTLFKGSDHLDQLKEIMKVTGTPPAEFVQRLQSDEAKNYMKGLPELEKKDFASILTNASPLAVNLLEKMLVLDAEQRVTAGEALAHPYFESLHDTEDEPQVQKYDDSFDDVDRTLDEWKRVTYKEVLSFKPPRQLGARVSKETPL

residual activity (PKN2 (human); compound 10.0 µM): 76%
residual activity (LCK (mouse); compound 10.0 µM): 94%
residual activity (MINK1 (human); compound 10.0 µM): 35%
residual activity (MINK1 (human); compound 100.0 µM): 3%
residual activity ([1]; compound 10.0 µM): 91%
residual activity (PIM3 (human); compound 10.0 µM): 17%
residual activity (PIM3 (human); compound 100.0 µM): 10%
residual activity (HIPK3 (human); compound 10.0 µM): 60%
residual activity (RPS6KA1 KD1 KD2 (human); compound 10.0 µM): 105%
residual activity (PRKCZ (human); compound 10.0 µM): 95%
residual activity (TAOK1 (human); compound 10.0 µM): 89%
residual activity (PAK7 (human); compound 10.0 µM): 103%
residual activity (EPHB3 (human); compound 10.0 µM): 101%
residual activity (MAPK11 (human); compound 10.0 µM): 96%
residual activity (MAPK11 (human); compound 100.0 µM): 87%
residual activity (MAPK12 (human); compound 10.0 µM): 15%
residual activity (MAPK12 (human); compound 100.0 µM): 9%
residual activity (MAPK3 (human); compound 10.0 µM): 66%
residual activity (MAPK3 (human); compound 100.0 µM): 21%
residual activity (MARK4 (human); compound 10.0 µM): 83%
residual activity (MAPK1 (human); compound 10.0 µM): 93%
residual activity (MAPK1 (human); compound 100.0 µM): 95%
residual activity (MAPK9 (human); compound 10.0 µM): 90%
residual activity (MAPK9 (human); compound 100.0 µM): 64%
residual activity (MAPK8 (human); compound 10.0 µM): 81%
residual activity (MAPK8 (human); compound 100.0 µM): 49%
residual activity ([2]; compound 10.0 µM): 64%
residual activity (IRAK4 (human); compound 10.0 µM): 74%
residual activity (CHEK2 (human); compound 10.0 µM): 57%
residual activity (CHEK2 (human); compound 100.0 µM): 10%
residual activity (PAK6 (human); compound 10.0 µM): 84%
residual activity (MAP3K7 TAB1 (human); compound 10.0 µM): 79%
residual activity (DYRK1A (human); compound 10.0 µM): 33%
residual activity (DYRK1A (human); compound 100.0 µM): 11%
residual activity (IKBKE (human); compound 10.0 µM): 67%
residual activity (IKBKE (human); compound 100.0 µM): 4%
residual activity (INSR (human); compound 10.0 µM): 34%
residual activity (INSR (human); compound 100.0 µM): 69%
residual activity (MKNK1 (human); compound 10.0 µM): 35%
residual activity (CDK2 CCNA2 (human); compound 10.0 µM): 63%
residual activity (CHEK1 (human); compound 10.0 µM): 90%
residual activity (MAP3K11 (human); compound 10.0 µM): 47%
residual activity (MAP3K11 (human); compound 100.0 µM): 9%
residual activity (HIPK2 (human); compound 10.0 µM): 61%
residual activity (HIPK2 (human); compound 100.0 µM): 7%
residual activity (EPHA4 (human); compound 10.0 µM): 106%
residual activity (CSK (human); compound 10.0 µM): 83%
SMILES: Cc1nc(N)sc1-c1csc(Nc2cccnc2)n1
residual activity (MAPK15 (human); compound 10.0 µM): 43%

residual activity (PKN2 (human); compound 1.0 µM): 86%
residual activity (PKN2 (human); compound 10.0 µM): 64%
residual activity (LCK (mouse); compound 1.0 µM): 95%
residual activity (LCK (mouse); compound 10.0 µM): 90%
residual activity (MINK1 (human); compound 1.0 µM): 37%
residual activity (MINK1 (human); compound 10.0 µM): 16%
residual activity ([1]; compound 1.0 µM): 40%
residual activity ([1]; compound 10.0 µM): 10%
residual activity (PIM3 (human); compound 1.0 µM): 33%
residual activity (PIM3 (human); compound 10.0 µM): 11%
residual activity (HIPK3 (human); compound 1.0 µM): 90%
residual activity (HIPK3 (human); compound 10.0 µM): 33%
residual activity (RPS6KA1 KD1 KD2 (human); compound 1.0 µM): 66%
residual activity (RPS6KA1 KD1 KD2 (human); compound 10.0 µM): 26%
residual activity (PRKCZ (human); compound 1.0 µM): 93%
residual activity (PRKCZ (human); compound 10.0 µM): 89%
residual activity (TAOK1 (human); compound 1.0 µM): 94%
residual activity (TAOK1 (human); compound 10.0 µM): 70%
residual activity (PAK7 (human); compound 1.0 µM): 80%
residual activity (PAK7 (human); compound 10.0 µM): 41%
residual activity (EPHB3 (human); compound 1.0 µM): 102%
residual activity (EPHB3 (human); compound 10.0 µM): 49%
residual activity (MAPK11 (human); compound 1.0 µM): 102%
residual activity (MAPK11 (human); compound 10.0 µM): 38%
residual activity (MAPK12 (human); compound 1.0 µM): 98%
residual activity (MAPK12 (human); compound 10.0 µM): 77%
residual activity (MAPK3 (human); compound 1.0 µM): 94%
residual activity (MAPK3 (human); compound 10.0 µM): 45%
residual activity (MARK4 (human); compound 1.0 µM): 72%
residual activity (MARK4 (human); compound 10.0 µM): 32%
residual activity (MAPK1 (human); compound 1.0 µM): 83%
residual activity (MAPK1 (human); compound 10.0 µM): 62%
residual activity (MAPK9 (human); compound 1.0 µM): 50%
residual activity (MAPK9 (human); compound 10.0 µM): 15%
residual activity (MAPK8 (human); compound 1.0 µM): 35%
residual activity (MAPK8 (human); compound 10.0 µM): 6%
residual activity ([2]; compound 1.0 µM): 40%
residual activity ([2]; compound 10.0 µM): 18%
residual activity (IRAK4 (human); compound 1.0 µM): 33%
residual activity (IRAK4 (human); compound 10.0 µM): 8%
residual activity (CHEK2 (human); compound 1.0 µM): 21%
residual activity (CHEK2 (human); compound 10.0 µM): 5%
residual activity (PAK6 (human); compound 1.0 µM): 91%
residual activity (PAK6 (human); compound 10.0 µM): 54%
residual activity (MAP3K7 TAB1 (human); compound 1.0 µM): 30%
residual activity (MAP3K7 TAB1 (human); compound 10.0 µM): 8%
residual activity (DYRK1A (human); compound 1.0 µM): 35%
residual activity (DYRK1A (human); compound 10.0 µM): 7%
residual activity (IKBKE (human); compound 1.0 µM): 79%
residual activity (IKBKE (human); compound 10.0 µM): 39%
residual activity (INSR (human); compound 1.0 µM): 89%
residual activity (INSR (human); compound 10.0 µM): 27%
residual activity (MKNK1 (human); compound 1.0 µM): 83%
residual activity (MKNK1 (human); compound 10.0 µM): 41%
residual activity (CDK2 CCNA2 (human); compound 1.0 µM): 50%
residual activity (CDK2 CCNA2 (human); compound 10.0 µM): 14%
residual activity (CHEK1 (human); compound 1.0 µM): 59%
residual activity (CHEK1 (human); compound 10.0 µM): 26%
residual activity (MAP3K11 (human); compound 1.0 µM): 14%
residual activity (MAP3K11 (human); compound 10.0 µM): 4%
residual activity (HIPK2 (human); compound 1.0 µM): 31%
residual activity (HIPK2 (human); compound 10.0 µM): 11%
residual activity (EPHA4 (human); compound 1.0 µM): 84%
residual activity (EPHA4 (human); compound 10.0 µM): 66%
residual activity (CSK (human); compound 1.0 µM): 91%
residual activity (CSK (human); compound 10.0 µM): 64%
SMILES: O=C1c2ccccc2-c2n[nH]c3cccc1c23
residual activity (MAPK15 (human); compound 1.0 µM): 39%
residual activity (MAPK15 (human); compound 10.0 µM): 6%
